Read-outs that look alike come from different tables or passages of the source. Ends that are not written are not given here.
Key:
[1] = Metabolic stability in cynomolgus monkey liver microsomes; type: in vitro ADME; conditions: for CLint scaled: cynomolgus monkey, microsomes, Cynomolgus monkey liver microsomes 0.5 mg protein/mL, 2 μM
[2] = Metabolic stability in Sprague-Dawley rat liver microsomes; type: in vitro ADME; conditions: for CLint scaled: rat, microsomes, Sprague-Dawley rat liver microsomes 0.5 mg protein/mL, 2 μM
CYP3A4 [3] = assay: CYP3A4 induction (enzyme activity) in single-donor human hepatocytes; type: in vitro ADME; conditions: for Fold Increase (Enzyme Activity) Mean: mean of three lots
[4] = Stability in simulated gastric fluid (SGF); type: in vitro ADME; conditions: SGF pH 1.3
Description: When developing any potentially oral-route pharmaceutical agent, the denaturing and pepsin-rich environment of the stomach must be considered. The stability of HM-10/10 was tested in simulated gastric fluid (SGF) and simulated intestinal fluid (SIF) over 120 min. […] Samples were tested at 2 μM.
For the HM-10/10 stability assay in simulated gastric and intestinal fluids, propantheline was used to confirm retention time and carbutamide was used as the internal standard for calculations.

CYP3A4 [5] = target: CYP3A4 (Homo sapiens, UniProt P08684); assay: CYP450 time-dependent inhibition, CYP3A4 (midazolam and testosterone substrates), pooled human liver microsomes; type: in vitro ADME
[6] = Stability in potassium phosphate buffers of pH 1.3, 5.5 and 7.4; type: physicochemical; conditions: potassium phosphate buffer; for remaining at 1 h, 2 µM: read-out: % Remaining at 60 min
Description: The stability of HM-10/10 under varying pH conditions was determined by adding the compound to potassium phosphate buffers of pH 1.3 (acidic), 5.5 (slightly acidic), and 7.4 (physiological pH), with 7-Ethoxycoumarin used as a control article. Under acidic and slightly acidic conditions, the half-life of HM-10/10 could not be determined, as the percentage of HM-10/10 was higher at the end of the time course than at the beginning (Table 3, Figure 3). […] Samples were tested at 2 µM.
The instrument was equipped with an electrospray ionization source (600 °C) operated in the positive-ion mode.

in vitro [7] = conditions: beagle, dog, plasma, pH 7.4
CYP2D6 = CYP2D6 (Homo sapiens, UniProt P10635); conditions: microsomes
CYP1A2 = target: T1, CYP1A2 (Homo sapiens, UniProt P05177); conditions: microsomes
T1 sequence (P05177 1-516): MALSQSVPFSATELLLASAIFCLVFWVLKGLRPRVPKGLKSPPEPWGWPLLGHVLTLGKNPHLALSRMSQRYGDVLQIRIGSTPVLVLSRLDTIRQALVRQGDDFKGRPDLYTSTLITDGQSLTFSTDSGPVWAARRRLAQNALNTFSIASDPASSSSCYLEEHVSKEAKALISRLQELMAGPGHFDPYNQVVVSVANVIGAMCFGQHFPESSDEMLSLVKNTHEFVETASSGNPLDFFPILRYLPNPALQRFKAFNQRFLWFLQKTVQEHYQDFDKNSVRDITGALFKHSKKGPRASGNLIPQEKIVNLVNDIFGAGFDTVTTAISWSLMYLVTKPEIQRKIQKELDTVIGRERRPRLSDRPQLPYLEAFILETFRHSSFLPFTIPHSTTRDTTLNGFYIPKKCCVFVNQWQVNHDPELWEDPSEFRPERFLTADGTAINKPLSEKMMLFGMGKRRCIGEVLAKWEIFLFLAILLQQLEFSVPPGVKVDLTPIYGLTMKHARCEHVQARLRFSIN

[8] = Protein binding in cynomolgus monkey plasma (ultracentrifugation); conditions: plasma (K2EDTA), pH 7.4
[9] = tested on: cynomolgus monkey plasma proteins; assay: as above; conditions: Cynomolgus monkey plasma (K2EDTA); 2 μM; 2.5 h at 37 °C
[10] = Metabolic stability in beagle dog liver microsomes; type: in vitro ADME; conditions: for CLint scaled: dog, microsomes, Beagle dog liver microsomes 0.5 mg protein/mL, 2 μM
in vitro [11] = conditions: human, plasma, pH 7.4
[12] = Protein binding in beagle dog plasma (ultracentrifugation); conditions: beagle, dog, plasma (K2EDTA), pH 7.4
[13] = tested on: beagle dog plasma proteins; assay: as above; conditions: Beagle dog plasma (K2EDTA); 2 μM; 2.5 h at 37 °C
[14] = Metabolic stability in cryopreserved Sprague-Dawley rat hepatocytes; type: in vitro ADME; conditions: Sprague-Dawley rat hepatocytes 0.5 million cells/mL; for CLint scaled: rat, hepatocytes, 2 μM
[15] = Metabolic stability in cryopreserved CD-1 mouse hepatocytes; type: in vitro ADME; conditions: CD-1 mouse hepatocytes 0.5 million cells/mL; for CLint scaled: mouse, hepatocytes, 2 μM
[16] = read-out: CLint (L/hr/kg) (converted)
[17] = cryopreserved hepatocytes, read-out: % Remaining at 30 min

CYP3A4 (Homo sapiens, UniProt P08684), sequence (P08684 whole entry): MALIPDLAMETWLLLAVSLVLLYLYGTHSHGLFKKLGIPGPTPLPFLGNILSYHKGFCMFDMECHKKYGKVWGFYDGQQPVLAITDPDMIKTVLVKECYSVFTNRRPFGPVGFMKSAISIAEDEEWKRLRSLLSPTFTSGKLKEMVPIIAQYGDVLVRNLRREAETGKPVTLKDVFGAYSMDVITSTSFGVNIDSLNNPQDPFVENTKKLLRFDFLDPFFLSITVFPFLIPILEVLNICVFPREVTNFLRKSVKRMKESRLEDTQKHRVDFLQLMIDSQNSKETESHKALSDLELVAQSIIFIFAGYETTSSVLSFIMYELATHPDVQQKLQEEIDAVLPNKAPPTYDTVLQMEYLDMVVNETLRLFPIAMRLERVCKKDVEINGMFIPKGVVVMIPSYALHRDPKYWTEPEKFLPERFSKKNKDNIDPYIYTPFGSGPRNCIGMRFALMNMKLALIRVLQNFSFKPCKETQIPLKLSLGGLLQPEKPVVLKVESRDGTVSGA
CYP2D6, sequence (P10635 whole entry): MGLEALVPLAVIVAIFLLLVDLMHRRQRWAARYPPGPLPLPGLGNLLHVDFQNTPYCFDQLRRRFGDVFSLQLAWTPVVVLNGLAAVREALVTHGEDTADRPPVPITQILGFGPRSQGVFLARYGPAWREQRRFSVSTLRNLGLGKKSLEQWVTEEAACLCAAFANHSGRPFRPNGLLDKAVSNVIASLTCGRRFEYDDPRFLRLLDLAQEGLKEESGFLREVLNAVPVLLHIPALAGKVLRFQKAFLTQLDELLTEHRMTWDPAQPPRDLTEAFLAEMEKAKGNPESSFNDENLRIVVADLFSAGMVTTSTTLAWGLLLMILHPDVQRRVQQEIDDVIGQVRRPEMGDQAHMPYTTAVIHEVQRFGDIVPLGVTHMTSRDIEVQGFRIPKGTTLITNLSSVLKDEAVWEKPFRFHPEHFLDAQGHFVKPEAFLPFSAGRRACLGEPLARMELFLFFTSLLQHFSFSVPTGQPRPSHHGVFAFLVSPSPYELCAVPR

- CLint scaled [1, 16]: 5.15 L/h/kg
- CLint scaled ([1]; read-out: CLint (mL/min/kg)): 5.15 L/h/kg
- half-life at 2 µM ([1]; pooled liver microsomes, pH 7.4, Cynomolgus monkey liver microsomes 0.5 mg protein/mL): 21.8 min
- remaining at 2 h, 2 µM ([1]; pooled liver microsomes, pH 7.4, Cynomolgus monkey liver microsomes 0.5 mg protein/mL, read-out: % Remaining at 120 min): 0.8%
- half-life at 2 µM ([2]; pooled liver microsomes, pH 7.4, Sprague-Dawley rat liver microsomes 0.5 mg protein/mL): 27.7 min
- remaining at 2 h, 2 µM ([2]; pooled liver microsomes, pH 7.4, Sprague-Dawley rat liver microsomes 0.5 mg protein/mL, read-out: % Remaining at 120 min): 3.7%
- CLint scaled [2, 16]: 6.09 L/h/kg
- CLint scaled ([2]; read-out: CLint (mL/min/kg)): 6.06 L/h/kg
- Fold Increase (Enzyme Activity) Lot HH1086 (CYP3A4 [3]; 2 µM): 2.06 fold
- Fold Increase (Enzyme Activity) Lot HH1142 (CYP3A4 [3]; 2 µM): 1.59 fold
- Fold Increase (Enzyme Activity) Lot HH1144 (CYP3A4 [3]; 2 µM): 1.35 fold
- Fold Increase (Enzyme Activity) Mean (CYP3A4 [3]; 2 µM): 1.67 fold
- Fold Increase (Enzyme Activity) Lot HH1086 (CYP3A4 [3]; 10 µM): 2.20 fold
- Fold Increase (Enzyme Activity) Lot HH1142 (CYP3A4 [3]; 10 µM): 2.12 fold
- Fold Increase (Enzyme Activity) Lot HH1144 (CYP3A4 [3]; 10 µM): 1.83 fold
- Fold Increase (Enzyme Activity) Mean (CYP3A4 [3]; 10 µM): 2.05 fold
- Fold Increase (Enzyme Activity) Lot HH1086 (CYP3A4 [3]; 25 µM): 2.07 fold
- Fold Increase (Enzyme Activity) Lot HH1142 (CYP3A4 [3]; 25 µM): 2.19 fold
- Fold Increase (Enzyme Activity) Lot HH1144 (CYP3A4 [3]; 25 µM): 2.15 fold
- Fold Increase (Enzyme Activity) Mean (CYP3A4 [3]; 25 µM): 2.14 fold
- half-life at 2 µM [4]: 372 min
- % Inhibition at 50 µM No PI + NADPH (CYP3A4 [5]; Midazolam (3A4)): 6.6%
- % Inhibition at 50 µM No PI − NADPH (CYP3A4 [5]; Midazolam (3A4)): 19.2%
- % Inhibition at 50 µM PI + NADPH (CYP3A4 [5]; Midazolam (3A4)): 13.9%
- % Inhibition at 50 µM PI − NADPH (CYP3A4 [5]; Midazolam (3A4)): 29.5%
- % Inhibition at 50 µM No PI + NADPH (CYP3A4 [5]; Testosterone (3A4)): 6.9%
- % Inhibition at 50 µM No PI − NADPH (CYP3A4 [5]; Testosterone (3A4)): −0.7%
- % Inhibition at 50 µM PI + NADPH (CYP3A4 [5]; Testosterone (3A4)): 11.3%
- % Inhibition at 50 µM PI − NADPH (CYP3A4 [5]; Testosterone (3A4)): 32.2%
- half-life at 2 µM ([6]; Acidic (pH 1.3)): > 120 min
- remaining at 1 h, 2 µM ([6]; Acidic (pH 1.3)): 156%
- half-life at 2 µM ([6]; Physiological pH (pH 7.4)): 433 min
- remaining at 1 h, 2 µM ([6]; Physiological pH (pH 7.4)): 81.4%
- half-life at 2 µM ([6]; Slightly Acidic (pH 5.5)): > 120 min
- remaining at 1 h, 2 µM ([6]; Slightly Acidic (pH 5.5)): 136%
- half-life at 2 µM (in vitro [7]): 54.6 min
- remaining at 2 h, 2 µM (in vitro [7]): 24.8%
- % Inhibition at 50 µM No PI + NADPH (CYP2D6): 6.0%
- % Inhibition at 50 µM No PI − NADPH (CYP2D6): 17.2%
- % Inhibition at 50 µM PI + NADPH (CYP2D6): 17.0%
- % Inhibition at 50 µM PI − NADPH (CYP2D6): 19.7%
- % Inhibition at 50 µM No PI + NADPH (CYP1A2): −18.0%
- % Inhibition at 50 µM No PI − NADPH (CYP1A2): −20.7%
- % Inhibition at 50 µM PI + NADPH (CYP1A2): 0.1%
- % Inhibition at 50 µM PI − NADPH (CYP1A2): −15.8%
- fraction unbound at 2.5 h, 2 µM ([8]; cynomolgus monkey): 0.736 ± 0.216
- remaining at 2.5 h, 2 µM ([8]; monkey): 25.9%
- % Protein Bound Mean ± SD [9]: 26.4 ± 21.6%
- % Protein Free Mean ± SD [9]: 73.6 ± 21.6%
- CLint scaled [10, 16]: 2.83 L/h/kg
- CLint scaled ([10]; read-out: CLint (mL/min/kg)): 2.83 L/h/kg
- half-life at 2 µM ([10]; pooled liver microsomes, pH 7.4, Beagle dog liver microsomes 0.5 mg protein/mL): 33 min
- remaining at 2 h, 2 µM ([10]; pooled liver microsomes, pH 7.4, Beagle dog liver microsomes 0.5 mg protein/mL, read-out: % Remaining at 120 min): 1.5%
- half-life at 2 µM (in vitro [11]): 164 min
- remaining at 2 h, 2 µM (in vitro [11]): 64.5%
- fraction unbound at 2.5 h, 2 µM [12]: 0.648 ± 0.265
- remaining at 2.5 h, 2 µM [12]: 29.2%
- % Protein Bound Mean ± SD [13]: 35.2 ± 26.5%
- % Protein Free Mean ± SD [13]: 64.8 ± 26.5%
- half-life at 2 µM ([14]; cryopreserved hepatocytes): 5.81 min
- remaining at 0.5 h, 2 µM [14, 17]: 1%
- CLint scaled [14, 16]: 75.4 L/h/kg
- CLint scaled ([14]; read-out: CLint (mL/min/kg)): 75.6 L/h/kg
- half-life at 2 µM ([15]; cryopreserved hepatocytes): < 15 min
- remaining at 0.5 h, 2 µM [15, 17]: 0.7%
- CLint scaled ([15]; read-out: CLint (L/hr/kg)): > 65.5 L/h/kg
- CLint scaled ([15]; read-out: CLint (mL/min/kg)): > 65.4 L/h/kg
Sequence: LRKLRKRLLRLVGRQLEEFL [HM-10/10, LRKLRKRLLRLVGRQLEEFL]

From paper PMC10298982, “Stability Characterization of the Novel Anti-Cancer HM-10/10 HDL-Mimetic Peptide” (International Journal of Molecular Sciences, 2023)
